Experimental findings from patent US20250346587A1, “NITROGEN-CONTAINING FIVE-MEMBERED HETEROCYCLIC DERIVATIVES AS CHECKPOINT KINASE 1 INHIBITOR AND USES THEREOF” (SPEROGENIX THERAPEUTICS LIMITED, priority 2022, published 2025) are described below.

Data set [1] is described as follows: Kinetic solubility assay (nephelometry). As to conditions: PBS, 37 °C, pH 7.4, aqueous buffer, kinetic from dmso stock.
Experimental: Test articles were serially diluted in DMSO from concentration range of 10 mM to 0.078 mM in 96 well v-bottom dilution plate (#3363, Corning). 1 μL of test article from each well was transferred to 96 well flat bottom clear plates (#655101, Greiner) containing 99 μL of PBS at pH-7.4, which makes the test drug final concentration range from 100 μM to 0.78 μM. Samples were incubated for 1 hour at 37° C. followed by measurement of light scattering at 625 nm with a laser based micro plate Nephelometer (Nephlostar Plus, BMG Labtech). Solubility concentration (μM) was then calculated by segmental regression with Neplometer as Readout.
The target of another data set is CHK-1 kinase (Homo sapiens (Human), UniProt O14757). The experiment in a line: CHK-1 % inhibition kinase assay (TR-FRET). Conditions: ATP 15 μM; for inhibition at 0.03 µM / inhibition at 0.3 µM: CHK1 enzyme; for inhibition at 0.03 µM: compound 30 nM; for inhibition at 0.3 µM: compound 300 nM; for pIC50: TR-FRET, read-out: CHK1 IC50. Format: biochemical. The method, then:
Inhibition of CHK-1 kinase or percent inhibition at defined concentrations was determined by TR-FRET assay. Kinase reactions were performed in a 20 μL volume in low-volume 384-well plates (Cat #Corning 4511). The concentration of substrate Fluorescein-CREBtide was maintained at 0.2 μM in the assay, and the kinase reaction buffer consisted of 50 mM HEPES pH 7.5, 0.01% BRIJ-35, 10 mM MgCl2, 1 mM EGTA. Serially diluted compounds (3-fold) in DMSO (0.5% in final reaction) were incubated with cocktail of CHK-1 kinase (6 nM; Cat #PR3959B, ThermoFisher), Fluorescein-CREBtide (0.2 μM; Cat #PV3508, ThermoFisher), ATP (15 μM; Cat #A1852, Sigma), and kinase reaction buffer. After 1 hour kinase reactions at room temperature, 10 μL of Detection mix (8 nM LanthaScreen® Tb-CREB [pSer133] antibody, Cat #PV3542, ThermoFisher with 20 mM EDTA in TR-FRET Buffer, Cat #PV3574, ThermoFisher) was added, and the plate was read with a plate reader (Synergy™ NEO; Biotek) for TR-FRET.
The resulting TR-FRET emission ratio was used to calculate the percent inhibition by normalizing to the control using the following formula: […]
In general terms: Time-resolved FRET reads energy transfer from a long-lived donor to a nearby acceptor.

Data set [2] in a line: Microsomal stability assay, rat liver microsome. Format: in vitro ADME. As to conditions: liver microsomes, pH 7.4, 0.2 mg/mL, 1 μM compound, 37° C., read-out: Clint RLM. The method, then: (§1) Incubation mixture contained 0.2 mg/mL microsomes, 1 mmol NADPH, and test compound at 1 μM in 100 mmol potassium phosphate buffer at pH 7.4. The mixtures were incubated at 37° C. for 5, 15, and 30 minutes. Aliquots of the mixtures were taken at 0, 5, 15 and 30 minutes and quenched with chilled Acetonitrile:Methanol (50:50) containing internal standard. Following completion of incubation, samples were centrifuged at 4,000 rpm at 4° C. The supernatant was analyzed by LC-MS/MS and half-life, as well as intrinsic clearance (Clint), were calculated.
Background: Microsomes from liver hold many membrane-bound enzymes, among them those of drug oxidation.

Data set [3] in a line: Microsomal stability assay, human liver microsome. Format: in vitro ADME. Conditions: liver microsomes, pH 7.4, 0.2 mg/mL, 1 μM compound, 37° C., read-out: Clint HLM. The method, then:
as §1

Data set [4] in a line: Microsomal stability assay, mouse liver microsome. Format: in vitro ADME. Conditions: liver microsomes, pH 7.4, 0.2 mg/mL, 1 μM compound, 37° C., read-out: Clint MLM. The method, then: as §1

The structures appear in SMILES notation. pIC50: −log10 of the molar value. In brackets after ≈: the same amount, converted by molar mass.

Sequence of CHK-1 kinase (O14757 whole entry): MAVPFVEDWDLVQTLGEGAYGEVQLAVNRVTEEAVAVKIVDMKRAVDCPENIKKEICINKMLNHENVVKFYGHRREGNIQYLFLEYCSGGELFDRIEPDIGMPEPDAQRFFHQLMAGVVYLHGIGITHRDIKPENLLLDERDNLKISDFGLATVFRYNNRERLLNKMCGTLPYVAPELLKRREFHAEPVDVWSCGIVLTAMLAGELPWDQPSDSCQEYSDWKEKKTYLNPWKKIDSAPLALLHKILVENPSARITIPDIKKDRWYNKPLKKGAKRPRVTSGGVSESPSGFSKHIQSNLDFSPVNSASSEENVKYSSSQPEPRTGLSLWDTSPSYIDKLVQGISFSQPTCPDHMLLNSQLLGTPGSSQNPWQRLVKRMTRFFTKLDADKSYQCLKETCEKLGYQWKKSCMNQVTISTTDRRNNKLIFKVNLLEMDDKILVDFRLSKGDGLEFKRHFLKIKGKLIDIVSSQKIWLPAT

By kinetic solubility is commonly meant solubility judged after dilution from a stock solution rather than from solid. As a reminder, the inhibition is the change of the read-out against control, counted positive when it falls. What is called pIC50 is the negative decadic logarithm of the IC50, by convention in mol/L. Regarding `N#Cc1cnc(Nc2cc(-c3ccccc3OC3CNC3)on2)cn1` [Compound 1.4, 5-(5-(2-(azetidin-3-yloxy)phenyl)isoxazol-3-ylamino) pyrazine-2-carbonitrile], the kinetic solubility at 1 h in data set [1] came out at 100 µM (≈ 33.4 µg/mL). On CHK-1 kinase, the inhibition at 0.03 µM is 7%, the inhibition at 0.3 µM was found to be 54% and the negative logarithm of the IC50 (pIC50) is 7.06. Moreover, the microsomal CLint at 1 μM in data set [2] stood at 27 µL/min/mg. Moreover, the microsomal CLint at 1 μM in data set [3] came out at 52 µL/min/mg. Moreover, in data set [4], the microsomal CLint at 1 μM is 66 µL/min/mg.

`N#Cc1cnc(Nc2cc(-c3ccccc3OCCCN)on2)cn1` [Compound 1.5, 5-(5-(2-(3-aminopropoxy)phenyl)isoxazol-3-ylamino) pyrazine-2-carbonitrile] had a kinetic solubility at 1 h in data set [1] of 41.8 µM (≈ 14.1 µg/mL). At CHK-1 kinase, the inhibition at 0.03 µM worked out at 63%, the inhibition at 0.3 µM amounted to 89% and the negative-log IC50 (pIC50) was 8.11. In addition, the microsomal CLint at 1 μM in data set [2] came out at 70 µL/min/mg. The microsomal CLint at 1 μM in data set [3] was found to be 78 µL/min/mg. Besides, the microsomal CLint at 1 μM in data set [4] amounted to 77 µL/min/mg.

In the case of `N#Cc1cnc(Nc2cc(-c3ccccc3OCCCCN)on2)cn1` [Compound 1.6, 5-(5-(2-(4-aminobutoxy)phenyl)isoxazol-3-ylamino) pyrazine-2-carbonitrile], in data set [1], the kinetic solubility at 1 h came to 42.8 µM (≈ 15 µg/mL). Moreover, on CHK-1 kinase, the inhibition at 0.03 µM came to 71%, the inhibition at 0.3 µM turned out to be 91% and the pIC50 is 7.91. Besides, the microsomal CLint at 1 μM in data set [2] is 118 µL/min/mg. The microsomal CLint at 1 μM in data set [3] amounted to 63 µL/min/mg. For the same compound, the microsomal CLint at 1 μM in data set [4] turned out to be 63 µL/min/mg.

In turn, `N#Cc1cnc(Nc2cc(-c3ccccc3OCCN)on2)cn1` [Compound 1.7, 5-(5-(2-(2-aminoethoxy)phenyl)isoxazol-3-ylamino) pyrazine-2-carbonitrile] gave a solubility (kinetic) at 1 h in data set [1] of 39.2 µM (≈ 12.6 µg/mL). Moreover, the inhibition at 0.03 µM at CHK-1 kinase was 36%. The inhibition at 0.3 µM at CHK-1 kinase worked out at 82%. Also, the microsomal CLint at 1 μM worked out at 118 µL/min/mg in data set [2], 75 µL/min/mg in data set [3] and 114 µL/min/mg in data set [4].

As for `CN1CCOC(COc2ccccc2-c2cc(Nc3cnc(C#N)cn3)no2)C1` (stereo not shown) [Compound 1.8, 5-(5-(2-((4-methylmorpholin-2-yl)methoxy)phenyl)isoxazol-3-ylamino) pyrazine-2-carbonitrile], the solubility (kinetic) at 1 h in data set [1] stood at 32 µM (≈ 12.6 µg/mL). Also, on CHK-1 kinase, the inhibition at 0.03 µM was 51%, the inhibition at 0.3 µM was determined as 64% and the negative logarithm of the IC50 (pIC50) was 7.12. In data set [2], the microsomal CLint at 1 μM turned out to be 104 µL/min/mg. In addition, the microsomal CLint at 1 μM in data set [3] is 202 µL/min/mg. The microsomal CLint at 1 μM in data set [4] came out at 481 µL/min/mg.

In the case of `CN1CC(Oc2ccccc2-c2cc(Nc3cnc(C#N)cn3)no2)C1` [Compound 1.10, 5-(5-(2-(1-methylazetidin-3-yloxy)phenyl)isoxazol-3-ylamino) pyrazine-2-carbonitrile], in data set [1], the solubility (kinetic) at 1 h was 30.5 µM (≈ 10.6 µg/mL). Moreover, the inhibition at 0.03 µM on CHK-1 kinase came out at 44%. Moreover, on CHK-1 kinase, the inhibition at 0.3 µM was 65%. Besides, the microsomal CLint at 1 μM worked out at 49 µL/min/mg in data set [2], 80 µL/min/mg in data set [3] and 243 µL/min/mg in data set [4].

Regarding `COc1ccccc1-c1cc(Nc2cnc(C#N)cn2)no1` [Compound 1.11, 5-(5-(2-methoxyphenyl)isoxazol-3-ylamino) pyrazine-2-carbonitrile], in data set [1], the kinetic solubility at 1 h was determined as 14 µM (≈ 4.11 µg/mL). Further, the inhibition at 0.03 µM at CHK-1 kinase amounted to 12%. Further, the inhibition at 0.3 µM at CHK-1 kinase worked out at 36%. Also, the figures for the microsomal CLint at 1 μM in data set [2], in data set [3] and in data set [4] were 79 µL/min/mg, 140 µL/min/mg and 382 µL/min/mg, respectively.

In data set [1], `CC(C)CC(C)N1CC(Oc2ccccc2-c2cc(Nc3cnc(C#N)cn3)no2)C1` (stereo not shown) [Compound 1.12, 5-(5-(2-(1-(4-methylpentan-2-yl)azetidin-3-yloxy)phenyl)isoxazol-3-ylamino) pyrazine-2-carbonitrile] had a kinetic solubility at 1 h of 38.4 µM (≈ 16.1 µg/mL). The inhibition at 0.03 µM at CHK-1 kinase amounted to 21%. The inhibition at 0.3 µM at CHK-1 kinase is 30%. For the same compound, the microsomal CLint at 1 μM is 266 µL/min/mg in data set [2], 478 µL/min/mg in data set [3] and 473 µL/min/mg in data set [4].

Consider `CC(C)N1CC(Oc2ccccc2-c2cc(Nc3cnc(C#N)cn3)no2)C1` [Compound 1.13, 5-(5-(2-(1-isopropylazetidin-3-yloxy)phenyl)isoxazol-3-ylamino) pyrazine-2-carbonitrile], for which, in data set [1], the kinetic solubility at 1 h was found to be 11.9 µM (≈ 4.48 µg/mL). The inhibition at 0.03 µM on CHK-1 kinase was 15%. On CHK-1 kinase, the inhibition at 0.3 µM stood at 32%. In addition, the microsomal CLint at 1 μM turned out to be 84 µL/min/mg in data set [2], 86 µL/min/mg in data set [3] and 221 µL/min/mg in data set [4].

`N#Cc1cnc(Nc2cc(-c3ccccc3OC3CCNC3)on2)cn1` (stereo not shown) [Compound 1.14, 5-(5-(2-(pyrrolidin-3-yloxy)phenyl)isoxazol-3-ylamino) pyrazine-2-carbonitrile] showed a kinetic solubility at 1 h in data set [1] of 39.6 µM (≈ 13.8 µg/mL). The inhibition at 0.03 µM on CHK-1 kinase came to 37%. The inhibition at 0.3 µM at CHK-1 kinase came to 60%. The results for the microsomal CLint at 1 μM in data set [2], in data set [3] and in data set [4] were 23 µL/min/mg, 34 µL/min/mg and 56 µL/min/mg, respectively.

As to `N#Cc1cnc(Nc2cc(-c3ccccc3O[C@H]3CC[C@@H](N)CC3)on2)cn1` [Compound 1.15, 5-(5-(2-((1s,4s)-4-aminocyclohexyloxy)phenyl)isoxazol-3-ylamino) pyrazine-2-carbonitrile], the kinetic solubility at 1 h in data set [1] turned out to be 100 µM (≈ 37.6 µg/mL). For the same compound, the inhibition at 0.03 µM on CHK-1 kinase came out at 39%. Moreover, the inhibition at 0.3 µM on CHK-1 kinase turned out to be 79%. Moreover, the microsomal CLint at 1 μM in data set [2] turned out to be 33 µL/min/mg; in data set [3], 12 µL/min/mg; in data set [4] it was 25 µL/min/mg.

Consider `CN1CCCC(COc2ccccc2-c2cc(Nc3cnc(C#N)cn3)no2)C1` (stereo not shown) [Compound 1.16, 5-(5-(2-((1-methylpiperidin-3-yl)methoxy)phenyl)isoxazol-3-ylamino) pyrazine-2-carbonitrile], for which the solubility (kinetic) at 1 h in data set [1] was 38.2 µM (≈ 14.9 µg/mL). Also, the inhibition at 0.03 µM on CHK-1 kinase was determined as 9%. Besides, the inhibition at 0.3 µM at CHK-1 kinase worked out at 75%. The microsomal CLint at 1 μM was 138 µL/min/mg in data set [2], 117 µL/min/mg in data set [3] and 141 µL/min/mg in data set [4].

In the case of `N#Cc1cnc(Nc2cc(-c3ccccc3OCC3CNC3)on2)cn1` [Compound 1.17, 5-(5-(2-(azetidin-3-ylmethoxy)phenyl)isoxazol-3-ylamino) pyrazine-2-carbonitrile], in data set [1], the kinetic solubility at 1 h was found to be 48 µM (≈ 16.7 µg/mL). On CHK-1 kinase, the inhibition at 0.03 µM worked out at 69%. Also, at CHK-1 kinase, the inhibition at 0.3 µM was determined as 95%. For the same compound, the values for the microsomal CLint at 1 μM in data set [2], in data set [3] and in data set [4] were 43 µL/min/mg, 26 µL/min/mg and 50 µL/min/mg, respectively.

Compound `CCC(C)N1CC(Oc2ccccc2-c2cc(Nc3cnc(C#N)cn3)no2)C1` (stereo not shown) [Compound 1.18, 5-(5-(2-(1-sec-butyl-azetidin-3-yloxy)phen-yl)isoxazol-3-ylamino)-pyrazine-2-carbonitrile] had a solubility (kinetic) at 1 h in data set [1] of 48 µM (≈ 18.7 µg/mL). Moreover, the inhibition at 0.03 µM at CHK-1 kinase was 4%. Besides, at CHK-1 kinase, the inhibition at 0.3 µM is 28%. Besides, the microsomal CLint at 1 μM in data set [2] came out at 130 µL/min/mg; in data set [3], 145 µL/min/mg; in data set [4], 297 µL/min/mg.

Take `N#Cc1cnc(Nc2cc(-c3ccccc3OC3CC(N)C3)on2)cn1` (stereo not shown) [Compound 1.20, 5-(5-(2-(3-aminocyclobutoxy)phenyl)isoxazol-3-ylamino) pyrazine-2-carbonitrile]: in data set [1], the solubility (kinetic) at 1 h was 29.4 µM (≈ 10.2 µg/mL). In addition, the inhibition at 0.03 µM on CHK-1 kinase was found to be 60.2%. Also, the inhibition at 0.3 µM at CHK-1 kinase was 91.9%. Also, the results for the microsomal CLint at 1 μM in data set [2], in data set [3] and in data set [4] were 46 µL/min/mg, 47 µL/min/mg and 86 µL/min/mg, respectively.

In data set [1], `N#Cc1cnc(Nc2cc(-c3ccccc3OC3CC4(CNC4)C3)on2)cn1` [Compound 1.21, 5-(5-(2-(2-azaspiro[3.3]heptan-6-yloxy)phenyl)isoxazol-3-ylamino) pyrazine-2-carbonitrile] had a solubility (kinetic) at 1 h of 18.8 µM (≈ 7.04 µg/mL). Also, the inhibition at 0.03 µM on CHK-1 kinase amounted to 78.7%. Moreover, the inhibition at 0.3 µM at CHK-1 kinase was determined as 95.5%. Further, the microsomal CLint at 1 μM in data set [2] came to 37 µL/min/mg; in data set [3], 20 µL/min/mg; in data set [4] it was 18 µL/min/mg.
